Assay results from patent US20250064890A1, “PROTEIN COMPOSITIONS FOR THE TREATMENT OF INFLAMMATORY DISEASES” (Unichem Laboratories Limited, priority 2021, published 2025).

Columns and labels:
[1] = test system: 5-Fluorouracil induced OM; experiment: Histopathology score of cheek pouch, 5-FU induced OM in hamsters; assay type: in vivo, golden Syrian hamsters; details: G3, 0.1 mg/Animal; scale 1-5
Experimental: (§1) To induce OM, animals were administered (except normal control) 5-Fluorouracil (5-FU) by intraperitoneal route at doses of 60 mg/kg & 40 mg/kg respectively on first two days. On Day 4, under anesthesia, with aim of enhancing OM, mechanical irritation of the oral mucosa were done using wire brush. Treatment was initiated from Day 4 to Day 12. For group 3 animals 100 μl of vehicle comprising of standard drug Dexamethasone at 0.1 mg was instilled in buccal cheek pouch. For group 4, 5 and 6 animals 100 μl of vehicle comprising of SEQ ID NO. 2 at 0.25 mg, 0.5 mg & 1 mg, respectively was instilled in buccal cheek pouch. At the end of treatment period, cheek pouch of the hamsters was exposed, Mucositis scoring was carried out and images were captured. The animals were then humanely sacrificed, cheek pouch/jugular mucosa were isolated and used for biomarker estimation and histopathological investigation by using ELISA method and Hematoxylin and Eosin (H&E) staining, respectively.
For histopathology the oral mucosa tissues were sectioned 5 μm thickness and stained with hematoxylin-eosin staining. For study histopathological the sections were analyzed by light microscopy.
The pouch/jugular mucosa were observed and scored for infiltration of inflammatory cells, vasodilatation, presence of hemorrhagic areas, edema, ulcerations, and abscesses.

Interleukin-1β = Interleukin-1β in jugular mucosa (ELISA), 5-FU induced OM in hamsters; assay type: in vivo, golden Syrian hamsters; details: G3, 0.1 mg/Animal
Experimental: as §1
(§2) Further, for biomarker estimation jugular mucosa was dissected out, tissue weighed and stored in ice cold 1×PBS. 100 mg of tissue was taken and in 1 ml of 1×PBS buffer. Supernatant of homogenate was used for analysis of TNF-α and Interleukin-1β using ELISA method as per manufacturers instruction. The levels of TNF-α and Interleukin-1β are given in Table 13, FIG. 2 and Table 14, FIG. 3, respectively.

[2] = test system: 5-Fluorouracil induced OM; experiment: Mucositis severity score, 5-FU induced OM in hamsters; assay type: in vivo, golden Syrian hamsters; details: G3, 0.1 mg/Animal, after 12 days; scale 0-5
Experimental: as §1
Mucositis severity was scored as given below: • Cheek pouch completely healthy—0; Mild erythema—1; • Severe erythema and superficial erosion—2; Formation of ulcers in one or more places—3; Cumulative ulcer formation about 50% of cheek pouch surface area—4; Complete ulceration of the cheek pouch mucosa—5.

[3] = Body weight change in 5-FU induced OM hamsters; assay type: in vivo, golden Syrian hamsters; details: G3, 0.1 mg/Animal in buccal cheek pouch, Day 4 to Day 12, with respect to Day 4
Experimental: In-vivo experiments conducted in healthy golden Syrian hamsters wherein animals were grouped as below:
as §1
Body weight of each animal was recorded daily till the end of experiment. Percentage change in body weight of the animals was calculated by using formula with respect to Day 4.

TNF-α = TNF-α in jugular mucosa (ELISA), 5-FU induced OM in hamsters; assay type: in vivo, golden Syrian hamsters; details: G3, 0.1 mg/Animal
Experimental: as §1, §2

[4] = test system: oral (buccal) mucosa cells (TR146); experiment: Cytoprotective effect against 5-FU induced damage (MTT); assay type: cell-based, human
Experimental: The cell viability was assessed by (MTT) assay and compared with positive control (Cells treated with Amifostine, EGCG and EGF and negative assay (untreated cells), wherein the control was the cells that underwent chemotherapy/radiotherapy.
The protective effect of the recombinant lectin on survival of TR146 cells against 5-FU induced damage was determined using following calculations:
The viability of cells was determined as: % Cell viability=(100−% Cytotoxicity); • where, the percentage cytotoxicity corresponding to each treatment was calculated as: % Cytotoxicity=[(R−X)/R]*100, wherein X=Absorbance of cells treated with 5-FU or radiation damage/TI+5-FU, R=Absorbance of Control cells (Untreated) and Percentage protection was calculated as:
{(Absorbance of TI+5-FU or radiation)−(Absorbance of 5-FU or radiation alone)/(Absorbance of Untreated)−(Absorbance of 5-FU alone)}*100

C[C@@H]1C[C@H]2[C@@H]3CCC4=CC(=O)C=C[C@]4(C)[C@@]3(F)[C@@H](O)C[C@]2(C)[C@@]1(O)C(=O)CO [Dexamethasone, reference compound]
Histopathology score, Mean [1]: 1.6 | IL-1β levels, Mean (Interleukin-1β): 163.96 | IL-1β levels, % Decrease vs G2 (Interleukin-1β; G2 = OM + Vehicle): 5.59% | Mucositis score [2]: 2.00±0.3 | decrease of body weight [3]: 6.59% | TNF-α levels, Mean (TNF-α): 134.29 pg/mL | TNF-α levels, % Decrease vs G2 (TNF-α; G2 = OM + Vehicle): −8.29%

O=C(O[C@@H]1Cc2c(O)cc(O)cc2O[C@@H]1c1cc(O)c(O)c(O)c1)c1cc(O)c(O)c(O)c1 [EGCG, Epigallocatechin gallate]
% Protection ([4]; 0.01 μM + 5-FU (5 mM)): 19.5% | % cytotoxicity ([4]; 0.01 μM + 5-FU (5 mM)): 47% | % viability ([4]; 0.01 μM + 5-FU (5 mM)): 53% | % Protection ([4]; 0.1 μM + 5-FU (5 mM)): 42.4% | % cytotoxicity ([4]; 0.1 μM + 5-FU (5 mM)): 33.6% | % viability ([4]; 0.1 μM + 5-FU (5 mM)): 66.4% | % Protection ([4]; 1 μM + 5-FU (5 mM)): 47.9% | % cytotoxicity ([4]; 1 μM + 5-FU (5 mM)): 30.4% | % viability ([4]; 1 μM + 5-FU (5 mM)): 69.6% | % Protection ([4]; 10 μM + 5-FU (5 mM)): 24.2% | % cytotoxicity ([4]; 10 μM + 5-FU (5 mM)): 44.2% | % viability ([4]; 10 μM + 5-FU (5 mM)): 55.8%
